The supplement of paper PMC8149375

Key:
Conditions in all cases: treatment: drug + dasatinib (fixed dose, not stated); 5 days
[1] = system: 786-O; test: minimum viability across doses, drug + dasatinib, relative to DMSO (fraction); higher = less growth inhibition
Procedure: (§1)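 Primary HTS combination arm: 8 RCC cell lines treated with 8 doses (up to 10 uM) of each library drug plus a fixed dose of dasatinib (dose not stated) for 5 days; viability read by CellTiter-Glo and normalised to DMSO. GI50 was fitted with XLfit, AUC is the area under the dose-response curve, and minimum viability is the lowest fraction of DMSO viability across doses.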

[2] = system: 769-P; test: as above
Procedure: as §1

[3] = system: UO-31; test: as above
Procedure: as §1

[4] = system: ACHN; test: as above
Procedure: as §1

[5] = system: SN12C; test: as above
Procedure: as §1

[6] = system: TK-10; test: as above
Procedure: as §1

[7] = system: CAKI-1; test: as above
Procedure: as §1

[8] = system: A498; test: as above
Procedure: as §1

[9] = system: 786-O; test: AUC of dose-response viability curve, drug + dasatinib, normalised to DMSO (arbitrary (AUC of normalised viability)); higher = less growth inhibition
Procedure: as §1

[10] = system: 769-P; test: as above
Procedure: as §1

[11] = system: UO-31; test: as above
Procedure: as §1

[12] = system: ACHN; test: as above
Procedure: as §1

[13] = system: SN12C; test: as above
Procedure: as §1

[14] = system: TK-10; test: as above
Procedure: as §1

[15] = system: CAKI-1; test: as above
Procedure: as §1

[16] = system: A498; test: as above
Procedure: as §1

[17] = system: 786-O; test: GI50 of drug in presence of dasatinib; higher = less potent
Procedure: as §1

[18] = system: 769-P; test: as above
Procedure: as §1

[19] = system: UO-31; test: as above
Procedure: as §1

[20] = system: ACHN; test: as above
Procedure: as §1

[21] = system: SN12C; test: as above
Procedure: as §1

[22] = system: TK-10; test: as above
Procedure: as §1

[23] = system: CAKI-1; test: as above
Procedure: as §1

[24] = system: A498; test: as above
Procedure: as §1

SMILES | GI50 of drug [17] [nM] | GI50 of drug [20] [nM] | minimum viability across doses [1] | minimum viability across doses [2] | minimum viability across doses [3] | minimum viability across doses [4] | minimum viability across doses [5] | minimum viability across doses [6] | minimum viability across doses [7] | minimum viability across doses [8] | AUC of dose-response viability curve [9] | AUC of dose-response viability curve [10] | AUC of dose-response viability curve [11] | AUC of dose-response viability curve [12] | AUC of dose-response viability curve [13] | AUC of dose-response viability curve [14] | AUC of dose-response viability curve [15] | AUC of dose-response viability curve [16] | GI50 of drug [18] [nM] | GI50 of drug [19] [nM] | GI50 of drug [21] [nM] | GI50 of drug [22] [nM] | GI50 of drug [23] [nM] | GI50 of drug [24] [nM]
CC(=O)Nc1ccc(NC(=S)NC(=O)c2ccc(C(C)(C)C)cc2)cc1 [Tenovin-1] + Cc1nc(Nc2ncc(C(=O)Nc3c(C)cccc3Cl)s2)cc(N2CCN(CCO)CC2)n1 [dasatinib] | 264 | 1200 | 0.00416 | 0.125 | 0.0071 | 0.385 | 0.656 | 0.342 | 0.498 | 0.0745 | 1.53 | 1.91 | 3 | 1.95 | 2.47 | 2.2 | 2.19 | 2.71 | 554 | 825 | > 10000 | 2840 | > 10000 | 854
O=C1CCC(N2C(=O)c3ccccc3C2=O)C(=O)N1 (stereo unspecified) [Thalidomide] + Cc1nc(Nc2ncc(C(=O)Nc3c(C)cccc3Cl)s2)cc(N2CCN(CCO)CC2)n1 [dasatinib] | > 10000 | > 10000 | 0.556 | 0.666 | 1.03 | 0.555 | 0.679 | 0.665 | 0.638 | 0.971 | 2.49 | 2.54 | 4.13 | 2.17 | 2.52 | 2.48 | 2.35 | 3.94 | > 10000 | > 10000 | > 10000 | > 10000 | > 10000 | > 10000
O=C(NCc1ccccc1)c1csc(Nc2ccncn2)n1 [Thiazovivin] + Cc1nc(Nc2ncc(C(=O)Nc3c(C)cccc3Cl)s2)cc(N2CCN(CCO)CC2)n1 [dasatinib] | 2390 | 2070 | 0.327 | 0.318 | 0.0123 | 0.225 | 0.694 | 0.494 | 0.175 | 0.777 | 2.04 | 2.27 | 2.79 | 2.12 | 2.56 | 2.73 | 2.04 | 3.03 | 2830 | 1650 | > 10000 | > 10000 | 1870 | > 10000
COc1ccc2cc(-c3[nH]c(-c4ccc(S(C)=O)cc4)nc3-c3ccncc3)ccc2c1 (stereo unspecified) [Tie2 kinase inhibitor] + Cc1nc(Nc2ncc(C(=O)Nc3c(C)cccc3Cl)s2)cc(N2CCN(CCO)CC2)n1 [dasatinib] | 8920 | > 10000 | 0.468 | 0.595 | 1.07 | 0.521 | 0.64 | 0.68 | 0.657 | 0.97 | 2.51 | 2.36 | 4.56 | 2.03 | 2.4 | 2.69 | 2.41 | 3.88 | > 10000 | > 10000 | > 10000 | > 10000 | > 10000 | > 10000
COc1cc2nccc(Oc3ccc(NC(=O)Nc4cc(C)on4)c(Cl)c3)c2cc1OC [Tivozanib (AV-951)] + Cc1nc(Nc2ncc(C(=O)Nc3c(C)cccc3Cl)s2)cc(N2CCN(CCO)CC2)n1 [dasatinib] | > 10000 | 1630 | 0.569 | 0.146 | 0.0455 | 0.0982 | 0.134 | 0.493 | 0.0242 | 0.457 | 2.68 | 2.1 | 3.32 | 1.95 | 2.12 | 2.55 | 1.75 | 3.13 | 1570 | 4150 | 1950 | 9670 | 743 | 9890
CC(C)(C)c1cc(/C=C(\C#N)C(N)=S)cc(C(C)(C)C)c1O [Tyrphostin AG 879 (AG 879)] + Cc1nc(Nc2ncc(C(=O)Nc3c(C)cccc3Cl)s2)cc(N2CCN(CCO)CC2)n1 [dasatinib] | < 3 | > 10000 | 0.458 | 0.689 | 1.26 | 0.556 | 0.706 | 0.653 | 0.45 | 1 | 1.83 | 2.55 | 5.04 | 2.11 | 2.56 | 2.39 | 2.38 | 3.69 | > 10000 | > 10000 | > 10000 | > 10000 | 7590 | > 10000
Cc1cc(Nc2cc(N3CCN(C)CC3)nc(Sc3ccc(NC(=O)C4CC4)cc3)n2)n[nH]1 [VX-680 (MK-0457, Tozasertib)] + Cc1nc(Nc2ncc(C(=O)Nc3c(C)cccc3Cl)s2)cc(N2CCN(CCO)CC2)n1 [dasatinib] | 152 | 145 | 0.308 | 0.269 | 0.0311 | 0.139 | 0.0667 | 0.536 | 0.077 | 0.183 | 1.88 | 1.79 | 2.75 | 1.68 | 1.97 | 2.73 | 1.6 | 2.4 | 325 | 3330 | 511 | > 10000 | 95.1 | 1110
COc1cc2c(Nc3ccc(Br)cc3F)ncnc2cc1OCC1CCN(C)CC1 [Vandetanib (Zactima)] + Cc1nc(Nc2ncc(C(=O)Nc3c(C)cccc3Cl)s2)cc(N2CCN(CCO)CC2)n1 [dasatinib] | 5420 | 305 | 0.332 | 0.157 | 0.0159 | 0.0849 | 0.456 | 0.161 | 0.0882 | 0.366 | 2.55 | 2.01 | 2.64 | 1.82 | 2.48 | 2.46 | 2.07 | 3.11 | 1130 | 1880 | > 10000 | 1490 | 2210 | 7710
CCCS(=O)(=O)Nc1ccc(F)c(C(=O)c2c[nH]c3ncc(-c4ccc(Cl)cc4)cc23)c1F [Vemurafenib (PLX4032)] + Cc1nc(Nc2ncc(C(=O)Nc3c(C)cccc3Cl)s2)cc(N2CCN(CCO)CC2)n1 [dasatinib] | 3840 | 5760 | 0.326 | 0.618 | 0.853 | 0.403 | 0.719 | 0.6 | 0.57 | 0.838 | 2.11 | 2 | 3.4 | 2.05 | 2.62 | 2.4 | 2.39 | 3.37 | > 10000 | > 10000 | > 10000 | 9220 | > 10000 | > 10000
COc1cc2ncnc(Nc3ccc(O)c(Br)c3)c2cc1OC [WHI-P154] + Cc1nc(Nc2ncc(C(=O)Nc3c(C)cccc3Cl)s2)cc(N2CCN(CCO)CC2)n1 [dasatinib] | > 10000 | 33.7 | 0.547 | 0.348 | 1.22 | 0.218 | 0.603 | 0.422 | 0.211 | 0.937 | 2.26 | 2.22 | 5.45 | 1.42 | 2.51 | 2.16 | 2.26 | 3.93 | 2580 | > 10000 | > 10000 | 1920 | 2980 | > 10000

Continued, in another order:

GI50 of drug [17] [nM] | GI50 of drug [20] [nM] | SMILES | minimum viability across doses [1] | minimum viability across doses [2] | minimum viability across doses [3] | minimum viability across doses [4] | minimum viability across doses [5] | minimum viability across doses [6] | minimum viability across doses [7] | minimum viability across doses [8] | AUC of dose-response viability curve [9] | AUC of dose-response viability curve [10] | AUC of dose-response viability curve [11] | AUC of dose-response viability curve [12] | AUC of dose-response viability curve [13] | AUC of dose-response viability curve [14] | AUC of dose-response viability curve [15] | AUC of dose-response viability curve [16] | GI50 of drug [18] [nM] | GI50 of drug [19] [nM] | GI50 of drug [21] [nM] | GI50 of drug [22] [nM] | GI50 of drug [23] [nM] | GI50 of drug [24] [nM]
524 | 91.2 | c1cncc(CN2CCC(n3ncc4c(N5CCOCC5)nc(-c5ccc6[nH]ccc6c5)nc43)CC2)c1 [WAY-600] + Cc1nc(Nc2ncc(C(=O)Nc3c(C)cccc3Cl)s2)cc(N2CCN(CCO)CC2)n1 [dasatinib] | 0.00323 | 0.0156 | 0.0101 | 0.0438 | 0.119 | 0.045 | 0.0191 | 0.0551 | 1.56 | 1.93 | 2.62 | 1.39 | 1.85 | 1.83 | 1.63 | 3.1 | 688 | 1100 | 523 | 433 | 306 | 4490
4310 | 8.56 | C[C@H](NC(=O)/C(C#N)=C/c1cccc(Br)n1)c1ccccc1 [WP1066] + Cc1nc(Nc2ncc(C(=O)Nc3c(C)cccc3Cl)s2)cc(N2CCN(CCO)CC2)n1 [dasatinib] | 0.0254 | 0.0555 | 0.00793 | 0.0689 | 0.385 | 0.713 | 0.285 | 0.638 | 2.35 | 2.49 | 4.08 | 1.48 | 2.36 | 2.77 | 2.28 | 3.03 | 3930 | 7910 | > 10000 | > 10000 | 3970 | > 10000
279 | 4370 | CCC[C@H](NC(=O)/C(C#N)=C/c1cccc(Br)n1)c1ccccc1 [WP1130] + Cc1nc(Nc2ncc(C(=O)Nc3c(C)cccc3Cl)s2)cc(N2CCN(CCO)CC2)n1 [dasatinib] | 0.00681 | 0.0169 | 0.0123 | 0.00233 | 0.00838 | 0.191 | 0.0305 | 0.02 | 1.79 | 2.25 | 3.53 | 1.95 | 2.37 | 2.43 | 2.12 | 2.69 | 3100 | 4240 | 3930 | 4750 | 2190 | 4100
381 | 74.7 | COC(=O)Nc1ccc(-c2nc(N3CCOCC3)c3cnn(C4CCN(C(=O)OC)CC4)c3n2)cc1 [WYE-354] + Cc1nc(Nc2ncc(C(=O)Nc3c(C)cccc3Cl)s2)cc(N2CCN(CCO)CC2)n1 [dasatinib] | 0.307 | 0.122 | 0.019 | 0.0892 | 0.215 | 0.208 | 0.0632 | 0.262 | 1.76 | 1.84 | 2.63 | 1.33 | 2.08 | 1.83 | 1.71 | 2.63 | 457 | 894 | 800 | 329 | 345 | 1980
